Data taken from patent publication US7544710B2 (Les Laboratoires Servier, priority 2002, dated 2009).

Tested on: animals
Test: In vivo study with a different strontium salt (strontium chloride)

[Cl-].[Cl-].[Sr+2] [strontium chloride]
superficial haemorrhagic lesions in the animals treated: very rapidly caused superficial haemorrhagic lesions
